Laboratory results reported in US20200268832A1, “COMPOSITIONS FOR DELIVERY TO AND TREATMENT OF ATHEROSCLEROTIC PLAQUES” (Sanford Burnham Prebys Medical Discovery Institute, priority 2015, published 2020).
Entries after “also recorded” stand apart in the source; their conditions may differ.

Columns and labels:
b1b2 domain of NRP-1 = biological target: T1, b1b2 domain of NRP-1 (Homo sapiens, UniProt O14786); test: Fluorescence polarization displacement of FAM-RPARPAR from NRP-1; assay type: binding; conditions: specificity assay, up to 100 μM
T1 sequence (O14786 273-586 limits assumed): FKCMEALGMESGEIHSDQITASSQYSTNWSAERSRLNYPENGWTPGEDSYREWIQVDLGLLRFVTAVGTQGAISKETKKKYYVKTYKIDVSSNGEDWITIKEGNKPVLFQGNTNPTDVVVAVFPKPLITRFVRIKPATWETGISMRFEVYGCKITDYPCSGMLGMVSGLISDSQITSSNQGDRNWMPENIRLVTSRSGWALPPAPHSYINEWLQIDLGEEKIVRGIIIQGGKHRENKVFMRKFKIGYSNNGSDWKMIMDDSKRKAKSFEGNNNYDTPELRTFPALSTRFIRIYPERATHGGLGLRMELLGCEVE
Procedure: Results of the high-throughput screen were confirmed in dose response tests. 8.25 μM to 100 μM dilutions of the compounds that displaced FAM-peptide from p32 were used in competition with FAM-peptide as described in previous section. Specificity of the hit compounds was verified by examining their binding to a different protein, b1b2 domain of NRP-1 (Vander Kooi et al., Proc. Natl. Acad. Sci. U.S.A., 10.1073/pnas.0700043104). Experimental method for NRP-1 b1b2 was developed and validated similarly to p32, using FAM-RPARPAR peptide as a known peptide ligand for NRP-1. The displacement of FAM-RPARPAR from NRP-1 protein by the hit compounds was studied in 384-well format, as described above.

p32 protein = biological target: T2, p32 protein (Homo sapiens, UniProt Q07021); test: NMR 1D 1H-aliph spectra of p32 with compounds; assay type: binding; conditions: 5 μM p32; compounds 100 and 500 μM; TT1 70 μM
T2 construct: 6xHis; host or cells: Rosetta-gami-2 cells (Novagen); an E. coli strain by own knowledge
T2 sequence (Q07021 74-282): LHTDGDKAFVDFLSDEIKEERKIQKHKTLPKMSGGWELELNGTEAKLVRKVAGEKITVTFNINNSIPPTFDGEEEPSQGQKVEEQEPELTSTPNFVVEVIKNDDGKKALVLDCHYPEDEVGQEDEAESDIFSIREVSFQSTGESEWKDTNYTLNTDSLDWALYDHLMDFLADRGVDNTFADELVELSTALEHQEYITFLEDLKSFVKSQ
Procedure: FIGS. 3A and 3B are graphs showing NMR based evaluation of binding of compounds 4014008 and 7933989 to P32 protein. The ID ^1H-aliph spectra of 5 μM P32 in the absence (bottom) and presence of compounds #4014008 (A) and #7933989 (B) at 100 μM (second from bottom) and 500 μM (second from top) were collected. As a control, the spectrum of p32 in the presence of the known peptide binder, TT1 at 70 μM, was also collected (top).
All the NMR experiments were carried out on a Bruker Avance 700 spectrometer equipped with a TCI cryoprobe at T=293 K. For structure determinations, the peptide concentration was 100 μM in the NMR buffer in presence of 150 μM of ZnCl2. One-dimensional (1D) 1H spectra were acquired with a spectral width of 8417.51 Hz, relaxation delay 1.0 s, 8 k data points for acquisition and 16 k for transformation.

[1] = test system: orthotopic MCF10Ca1A breast tumors; test: In vivo homing of iron oxide nanoworms in tumor-bearing mice; conditions: IV, 7.5 mg Fe/kg, 5-6 hours circulation
Procedure: FIG. 10 is a graph of nanoparticles functionalized with compound #008 homing to tumors and atherosclerotic plaques. Orthotopic MCF10Ca1Abreast tumors from mice injected with iron oxide […] (NWs) (7.5 mg/kg of Fe) coated with FAM-#008 or with an inert peptide (control). The NWs were allowed to circulate for 5 hours, the mice were perfused through the heart with PBS and tumors, and organs were collected. Quantification of fluorescence carried out with ImageJ software. Multiple sections from three tumors were analyzed (P<0.0001, Student's t-test).
Animal experimentation was performed according to the procedures approved by the Animal Research Committee at the Sanford-Burnham Medical Research Institute, San Diego. […] FAM labeled #4014008-NWs were injected into the tail vein (7.5 mg of iron per kilogram of body weight), the animals were euthanized 5-6 hours after the injection by cardiac perfusion with PBS under anesthesia, and organs were dissected and analyzed for particle homing. […]
For immunostaining, […] tissue sections were first incubated for 1 hour at room temperature with 10% serum from the species in which the secondary antibody was generated, followed by incubation with the primary antibody overnight at 4° C. […] The primary antibodies were detected with Alexa 594 goat anti-rat and 594 goat anti-rabbit secondary antibodies (1:1000; Molecular Probes). […]

atherosclerotic plaques = test: Plaque homing of FAM-labeled #008-NWs in atherosclerotic mouse; assay type: in vivo; conditions: 1 mg/ml, 200 μl, IV, two hours circulation; listed as #008

Question: How did the “effect on RPARPAR peptide binding to NRP-1” value (b1b2 domain of NRP-1) turn out when Cc1cnccc1NCCN [Compound 4014008, N-(3-methylpyridin-4-yl)ethane-1,2-diamine] was run?
Answer: The value was “no effect”.

Question: And the “perturbations in 1D 1H-aliphatic spectra of p32” value (p32 protein)?
Answer: The value was “caused similar perturbations; also recorded: shift in the peak at around −0.3 ppm”.

Question: What about the “homing to MCF10Ca1A tumors” value [1] of the same compound?
Answer: Its value is “specifically home to tumors”.

Question: What about the “nanoparticle homing/accumulation in plaques” value (atherosclerotic plaques) of the same compound?
Answer: The value was “specifically home; also recorded: directs nanoparticle accumulation in plaques”.
